Reference: the supplement of paper PMC7600603

How the values were obtained:
[1] = system: DLD1 NRF2-GOF; assay: drug sensitivity score (DSS) cytotoxicity (DSS score); higher = more toxic; extreme values may be limits of the assay; details: 72 h; CellTox Green cytotoxicity
Summary of the method: (§1)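 TC50 and drug sensitivity score, a normalised area under the curve, were derived by logistic dose-response fits of cytotoxicity. The cells were an isogenic DLD1 colorectal cancer pair, NRF2 wild-type or CRISPR-edited, kept in DMEM with 10% FBS. Compounds were tested in 384-well plates at 5 concentrations across a 10,000-fold range for 72 h. Readings with CellTox Green on a Pherastar FS reader were normalised to vehicle wells and 100-μM positive-control wells.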

[2] = system: DLD1 NRF2-WT; assay: as above; details: 72 h; CellTox Green cytotoxicity
Summary of the method: as §1

[3] = system: DLD1 NRF2-GOF; assay: drug sensitivity score (DSS) viability (DSS score); higher = more sensitive; extreme values may be limits of the assay; details: 72 h; CellTiter-Glo viability
Summary of the method: (§2)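 Cells grown in DMEM with 10% FBS were isogenic DLD1 colorectal cancer lines, NRF2 wild-type or CRISPR gain-of-function. In 384-well plates they received library compounds at 5 concentrations over a 10,000-fold range for 72 h before CellTiter-Glo readout on a Pherastar FS reader, normalised to vehicle wells and 100-μM positive-control wells. Dose-response fits used a four-parameter logistic model, from which EC50 and drug sensitivity score, a normalised area under the curve, were obtained.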

[4] = system: DLD1 NRF2-WT; assay: as above; details: 72 h; CellTiter-Glo viability
Summary of the method: as §2

[5] = system: DLD1 NRF2-GOF; details: 72 h; CellTiter-Glo viability
Summary of the method: as §2

[6] = system: DLD1 NRF2-WT; details: 72 h; CellTiter-Glo viability
Summary of the method: as §2

[7] = system: DLD1 NRF2-GOF; assay: TC50 cytotoxicity; higher = less toxic; details: 72 h; CellTox Green cytotoxicity
Summary of the method: as §1

[8] = system: DLD1 NRF2-WT; assay: TC50 cytotoxicity; higher = less toxic; details: 72 h; CellTox Green cytotoxicity
Summary of the method: as §1

Question: Which drug sensitivity score [1] does the source give for `CC(C)(C)Cn1c(N)nc2ccc(-c3[nH]c(C(C)(C)C)nc3-c3ccc(F)cc3)nc21` [Ralimetinib] here?
Answer: The drug sensitivity score was 0.

Question: What about the drug sensitivity score [2] of the same compound?
Answer: Its drug sensitivity score is 0.

Question: And the drug sensitivity score [3]?
Answer: The drug sensitivity score was 2.9.

Question: And the drug sensitivity score [4]?
Answer: The drug sensitivity score was 4.3.

Question: And the EC50 viability [5]?
Answer: The EC50 viability was 2.83 µM.

Question: And the EC50 viability [6]?
Answer: Its EC50 viability is 1.94 µM.

Question: What about the TC50 cytotoxicity [7] of the same compound?
Answer: Its TC50 cytotoxicity is over 10 µM.

Question: And the TC50 cytotoxicity [8]?
Answer: Its TC50 cytotoxicity is over 10 µM.

Question: Which drug sensitivity score [1] does the source give for `Cc1nc(=O)c2cc(CN(C)c3ccc(C(=O)N[C@@H](CCC(=O)O)C(=O)O)s3)ccc2[nH]1` [Raltitrexed] here?
Answer: Its drug sensitivity score is 0.

Question: What about the drug sensitivity score [2] of the same compound?
Answer: The drug sensitivity score was 0.

Question: And the drug sensitivity score [3]?
Answer: Its drug sensitivity score is 18.

Question: And the drug sensitivity score [4]?
Answer: The drug sensitivity score was 16.

Question: What about the EC50 viability [5] of the same compound?
Answer: Its EC50 viability is 0.0083 µM.

Question: What about the EC50 viability [6] of the same compound?
Answer: Its EC50 viability is 0.0147 µM.

Question: What about the TC50 cytotoxicity [7] of the same compound?
Answer: The TC50 cytotoxicity was over 1 µM.

Question: What about the TC50 cytotoxicity [8] of the same compound?
Answer: Its TC50 cytotoxicity is over 1 µM.

Question: With `CNC(=O)c1cc(Oc2ccc(NC(=O)Nc3ccc(Cl)c(C(F)(F)F)c3)c(F)c2)ccn1` [Regorafenib] as the compound, how does the drug sensitivity score [1] read?
Answer: The drug sensitivity score was 0.

Question: And the drug sensitivity score [2]?
Answer: Its drug sensitivity score is 0.

Question: And the drug sensitivity score [3]?
Answer: Its drug sensitivity score is 2.4.

Question: What about the drug sensitivity score [4] of the same compound?
Answer: The drug sensitivity score was 3.8.

Question: And the EC50 viability [5]?
Answer: The EC50 viability was 3.71 µM.

Question: And the EC50 viability [6]?
Answer: The EC50 viability was 3.3 µM.

Question: And the TC50 cytotoxicity [7]?
Answer: Its TC50 cytotoxicity is over 10 µM.

Question: What about the TC50 cytotoxicity [8] of the same compound?
Answer: The TC50 cytotoxicity was over 10 µM.

Question: Which results are given for `CCOCc1nc2c(N)nc3ccccc3c2n1CC(C)(C)O` [Resiquimod]?
Answer: drug sensitivity score [1]: 0; drug sensitivity score [2]: 0; drug sensitivity score [3]: 0.6; drug sensitivity score [4]: 0.7; EC50 viability [5]: > 10 µM; EC50 viability [6]: > 10 µM; TC50 cytotoxicity [7]: > 10 µM; TC50 cytotoxicity [8]: > 10 µM

Question: What does the source list for `CN(C)C(=O)c1cc2cnc(Nc3ccc(N4CCNCC4)cn3)nc2n1C1CCCC1` [Ribociclib]?
Answer: drug sensitivity score [1]: 0; drug sensitivity score [2]: 0; drug sensitivity score [3]: 6.8; drug sensitivity score [4]: 8.2; EC50 viability [5]: 0.169 µM; EC50 viability [6]: 0.46 µM; TC50 cytotoxicity [7]: > 10 µM; TC50 cytotoxicity [8]: > 10 µM

Question: How did the drug sensitivity score [1] turn out when `C=CC(=O)Nc1cccc(Nc2nc(Nc3ccc(N4CCN(C(C)=O)CC4)cc3OC)ncc2C(F)(F)F)c1` [Rociletinib] was run?
Answer: Its drug sensitivity score is 0.7.

Question: What about the drug sensitivity score [2] of the same compound?
Answer: The drug sensitivity score was 1.5.

Question: What about the drug sensitivity score [3] of the same compound?
Answer: Its drug sensitivity score is 3.1.

Question: What about the drug sensitivity score [4] of the same compound?
Answer: Its drug sensitivity score is 5.3.

Question: What about the EC50 viability [5] of the same compound?
Answer: The EC50 viability was 3.69 µM.

Question: What about the EC50 viability [6] of the same compound?
Answer: The EC50 viability was 2.44 µM.

Question: What about the TC50 cytotoxicity [7] of the same compound?
Answer: The TC50 cytotoxicity was over 10 µM.

Question: What about the TC50 cytotoxicity [8] of the same compound?
Answer: Its TC50 cytotoxicity is 3.15 µM.

Question: Which results are given for `CN(C)C[C@@H]1CCn2cc(c3ccccc32)C2=C(C(=O)NC2=O)c2cn(c3ccccc23)CCO1` [Ruboxistaurin]?
Answer: drug sensitivity score [1]: 0.2; drug sensitivity score [2]: 0; drug sensitivity score [3]: 5; drug sensitivity score [4]: 5.1; EC50 viability [5]: 2 µM; EC50 viability [6]: 2.08 µM; TC50 cytotoxicity [7]: > 10 µM; TC50 cytotoxicity [8]: > 10 µM

Question: `CC(C)(C)c1cnc(CSc2cnc(NC(=O)C3CCNCC3)s2)o1` [SNS-032] was tested. Which drug sensitivity score [1] did it give?
Answer: The drug sensitivity score was 0.

Question: What about the drug sensitivity score [2] of the same compound?
Answer: Its drug sensitivity score is 0.8.

Question: And the drug sensitivity score [3]?
Answer: The drug sensitivity score was 17.5.

Question: What about the drug sensitivity score [4] of the same compound?
Answer: Its drug sensitivity score is 23.1.

Question: And the EC50 viability [5]?
Answer: Its EC50 viability is 0.223 µM.

Question: What about the EC50 viability [6] of the same compound?
Answer: The EC50 viability was 0.0984 µM.

Question: What about the TC50 cytotoxicity [7] of the same compound?
Answer: Its TC50 cytotoxicity is over 10 µM.

Question: And the TC50 cytotoxicity [8]?
Answer: Its TC50 cytotoxicity is over 10 µM.

Question: What does the source list for `CN1CCN(CCOc2cc(OC3CCOCC3)c3c(Nc4c(Cl)ccc5c4OCO5)ncnc3c2)CC1` [Saracatinib]?
Answer: drug sensitivity score [1]: 0.1; drug sensitivity score [2]: 0.7; drug sensitivity score [3]: 0.3; drug sensitivity score [4]: 2.4; EC50 viability [5]: > 10 µM; EC50 viability [6]: 2.48 µM; TC50 cytotoxicity [7]: > 10 µM; TC50 cytotoxicity [8]: > 10 µM
